Laboratory results as given in ChEMBL document CHEMBL1132922, “Corticotropin releasing factor (CRF) receptor modulators: progress and opportunities for new therapeutic agents” (J Med Chem, 2000).
Blank lines part the entries; values can stand above or below the molecule they belong to. Residues, ends and D or L forms follow the SMILES beside them.

Experiments:
[1] = target: T1, Corticotropin releasing factor receptor (Rattus norvegicus, UniProt P47866+P35353); assay: Compound was tested for the inhibition of binding of the radioligand, [125 I-Tyr0]-CRF to rat cerebral cortex membrane; type: tissue-based
[2] = target: T2, Corticotropin-releasing factor receptor 1 (Homo sapiens, UniProt P34998); assay: Compound was tested for the binding affinity to human corticotropin releasing factor 1 (hCRF1) receptors.
T2 sequence (P34998 whole entry): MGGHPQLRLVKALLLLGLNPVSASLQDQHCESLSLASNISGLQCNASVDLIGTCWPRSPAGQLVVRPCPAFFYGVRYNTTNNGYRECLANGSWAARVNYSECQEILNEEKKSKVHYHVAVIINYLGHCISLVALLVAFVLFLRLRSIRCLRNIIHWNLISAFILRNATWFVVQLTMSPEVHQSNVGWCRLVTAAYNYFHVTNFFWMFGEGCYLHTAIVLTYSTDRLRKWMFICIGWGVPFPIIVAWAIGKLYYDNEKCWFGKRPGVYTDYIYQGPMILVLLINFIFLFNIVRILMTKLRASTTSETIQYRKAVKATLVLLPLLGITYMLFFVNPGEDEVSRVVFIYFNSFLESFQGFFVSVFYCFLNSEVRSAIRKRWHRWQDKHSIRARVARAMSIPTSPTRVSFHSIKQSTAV

[3] = Inhibition of ovine CRF stimulated adenylate cyclase assay in CHO-p5 cells; type: functional, cell-based; details: Ovis aries
[4] = target: T2, Corticotropin-releasing factor receptor 1; assay: Activity of peptidic agonists on corticotropin releasing factor receptor using agonist-stimulated adenylate cyclase assay; type: functional
[5] = target: T2, Corticotropin-releasing factor receptor 1; assay: Binding affinity of the receptor corticotropin releasing factor receptor with peptidic agonists
[6] = target: T3, Corticotropin-releasing factor receptor 2 (Homo sapiens, UniProt Q13324); assay: Activity of peptidic agonists on h-CRF2-alpha receptor using agonist-stimulated adenylate cyclase assay; type: functional
T3 sequence (Q13324 whole entry): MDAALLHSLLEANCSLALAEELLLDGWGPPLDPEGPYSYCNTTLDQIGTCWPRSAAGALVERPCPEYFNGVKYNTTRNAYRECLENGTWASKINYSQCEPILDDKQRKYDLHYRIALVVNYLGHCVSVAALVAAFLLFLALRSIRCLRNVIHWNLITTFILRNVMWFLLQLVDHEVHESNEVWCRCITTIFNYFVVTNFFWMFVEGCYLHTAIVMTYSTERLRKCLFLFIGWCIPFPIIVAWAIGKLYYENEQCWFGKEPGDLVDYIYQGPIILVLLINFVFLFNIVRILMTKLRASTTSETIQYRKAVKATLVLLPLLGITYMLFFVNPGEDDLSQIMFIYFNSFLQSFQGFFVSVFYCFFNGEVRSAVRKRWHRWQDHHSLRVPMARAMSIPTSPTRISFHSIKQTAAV

[7] = target: T3, Corticotropin-releasing factor receptor 2; assay: Binding affinity of the receptor h-CRF2-alpha with peptidic agonists
[8] = species: Rattus norvegicus; assay: effective concentration used to stimulate the secretion of adenocorticotropic hormone(ACTH) in primary cultures of rat pituitary cells; type: functional, cell-based; details: Pituitary gland cell
[9] = target: T1, Corticotropin releasing factor receptor; assay: (§1) Compound was tested for the binding affinity to rat corticotropin releasing factor receptor; type: protein assay
[10] = target: T1, Corticotropin releasing factor receptor; assay: Inhibition of binding of the radioligand, [125 I-Tyr0]-CRF to rat cerebral cortex membrane; type: tissue-based
[11] = species: Rattus norvegicus; assay: 50% inhibitory concentration to antagonize Corticotropin releasing factor (CRF) stimulated adenylate cyclase; type: functional
[12] = target: T1, Corticotropin releasing factor receptor; assay: as §1; type: protein assay; remark: listed apart in the source
[13] = tested on: HEK293; assay: Inhibition of h- CRF mediated increase in adenylate cyclase activity was evaluated in HEK293 cells; type: functional, cell-based; details: Homo sapiens
[14] = target: T2, Corticotropin-releasing factor receptor 1; assay: Compound was tested for the binding affinity to human corticotropin releasing factor 1 (hCRF1) receptors
[15] = tested on: Rattus norvegicus; assay: Percent reduction in latency time in the dark compartment at 20 mg/kg was reported; type: functional
[16] = tested on: Rattus norvegicus; assay: Minimum effective dose in rat […] anxiety test when administered perorally; type: functional; details: po, read-out: MED
[17] = species: Rattus norvegicus; assay: Oral activity was evaluated in an rat situational anxiety test; type: functional

IC50 [1]: 10 nM
Molecule: CCN(c1nc(C)cc(N2CCC=C(c3ccccc3C)C2)n1)c1ccc(C(C)C)cc1SC

IC50 [1]: 80 nM
Molecule: CCCN(c1nc(-c2ccc(Cl)cc2Cl)c(C)s1)c1cccc2ncccc12

Ki [2]: 13.7 nM
Molecule: CCCN(CCOC)c1cc(C)nc2c(-c3ccc(OC)c(OC)c3)c(C)nn12

Ki [2]: 1.3 nM
Molecule: CCC(CC)n1nnc2c(N3CCc4cc(Cl)cc(Cl)c43)nc(C)cc21

IC50 [3]: 357 nM
Molecule: CCCCN(CC)c1cc(C)nc2c(-c3ccc(Cl)cc3Cl)c(C)nn12

EC50 [4]: 6.3 nM
Ki [5]: 1.07 nM
EC50 [6]: 1.5 nM
Ki [7]: 1.26 nM
Molecule: H-NDDPPISIDLTFHLLRNMIEMARIENEREQAGLNRKYLDEV-NH2

EC50 [4]: 3.4 nM
Ki [5]: 7.3 nM
EC50 [6]: 1.4 nM
Ki [7]: 2.73 nM
Molecule: CC[C@H](C)[C@H](NC(=O)[C@@H](NC(=O)[C@H](CC(=O)O)NC(=O)[C@H](CC(C)C)NC(=O)[C@H](CC(C)C)NC(=O)[C@H](CC(C)C)NC(=O)[C@H](CCCN=C(N)N)NC(=O)[C@H](CC(N)=O)NC(=O)[C@H](CC(N)=O)NC(=O)[C@H](C)NC(=O)[C@H](C)NC(=O)[C@H](CCC(N)=O)NC(=O)[C@H](CCC(N)=O)NC(=O)[C@H](CCCCN)NC(=O)[C@H](CCC(=O)O)NC(=O)[C@H](CCCCN)NC(=O)[C@H](CCC(=O)O)NC(=O)[C@H](CCC(N)=O)NC(=O)[C@H](CCCCN)NC(=O)[C@H](CCC(=O)O)NC(=O)[C@@H](NC(=O)[C@H](CCC(=O)O)NC(=O)[C@@H](NC(=O)[C@H](CCSC)NC(=O)[C@H](CCCCN)NC(=O)[C@H](CCCN=C(N)N)NC(=O)[C@H](CC(C)C)NC(=O)[C@H](CC(C)C)NC(=O)[C@H](CCC(=O)O)NC(=O)[C@H](CC(C)C)NC(=O)[C@H](CO)NC(=O)[C@H](CC(C)C)NC(=O)[C@H](CC(=O)O)NC(=O)[C@@H](NC(=O)[C@H](CO)NC(=O)[C@@H](NC(=O)[C@@H]1CCCN1C(=O)[C@@H]1CCCN1C(=O)CNC(=O)[C@@H](N)CCC(N)=O)[C@@H](C)CC)[C@@H](C)CC)[C@@H](C)CC)[C@@H](C)CC)[C@@H](C)O)C(N)=O

EC50 [8]: 0.2 nM
Molecule: CC[C@H](C)[C@H](NC(=O)[C@@H](NC(=O)[C@H](CCC(=O)O)NC(=O)[C@H](CCSC)NC(=O)[C@H](CC(C)C)NC(=O)[C@H](CCCCN)NC(=O)[C@H](CCCN=C(N)N)NC(=O)[C@H](CC(N)=O)NC(=O)[C@H](CO)NC(=O)[C@H](Cc1c[nH]cn1)NC(=O)[C@H](C)NC(=O)[C@H](CCC(N)=O)NC(=O)[C@H](CCC(N)=O)NC(=O)[C@H](C)NC(=O)[C@H](CC(C)C)NC(=O)[C@H](CCC(N)=O)NC(=O)[C@H](CCC(=O)O)NC(=O)[C@H](C)NC(=O)[C@H](CCCN=C(N)N)NC(=O)[C@H](C)NC(=O)[C@H](CCSC)NC(=O)[C@H](CCC(=O)O)NC(=O)[C@H](CC(C)C)NC(=O)[C@@H](NC(=O)[C@H](CCC(=O)O)NC(=O)[C@H](CCCN=C(N)N)NC(=O)[C@H](CC(C)C)NC(=O)[C@H](CC(C)C)NC(=O)[C@H](Cc1c[nH]cn1)NC(=O)[C@H](Cc1ccccc1)NC(=O)[C@@H](NC(=O)[C@H](CC(C)C)NC(=O)[C@H](CC(=O)O)NC(=O)[C@H](CC(C)C)NC(=O)[C@H](CO)NC(=O)[C@@H](NC(=O)[C@@H]1CCCN1C(=O)[C@@H]1CCCN1C(=O)[C@H](CCC(=O)O)NC(=O)[C@H](CCC(=O)O)NC(=O)[C@@H](N)CO)[C@@H](C)CC)[C@@H](C)O)C(C)C)[C@@H](C)CC)C(N)=O

EC50 [4]: 0.22 nM
Ki [5]: 3.76 nM
EC50 [6]: 0.32 nM
Ki [7]: 3.6 nM
Molecule: CC[C@H](C)[C@H](NC(=O)[C@H](CO)NC(=O)[C@H](CC(C)C)NC(=O)[C@H](CO)NC(=O)[C@@H]1CCCN1C(=O)[C@H](CC(N)=O)NC(=O)[C@@H](N)CC(=O)O)C(=O)N[C@@H](CC(=O)O)C(=O)N[C@@H](CC(C)C)C(=O)N[C@H](C(=O)N[C@@H](Cc1ccccc1)C(=O)N[C@@H](Cc1cnc[nH]1)C(=O)N[C@@H](CC(C)C)C(=O)N[C@@H](CC(C)C)C(=O)N[C@@H](CCCNC(=N)N)C(=O)N[C@H](C(=O)N[C@@H](CC(C)C)C(=O)N[C@@H](CC(C)C)C(=O)N[C@@H](CCC(=O)O)C(=O)N[C@@H](CC(C)C)C(=O)N[C@@H](C)C(=O)N[C@@H](CCCNC(=N)N)C(=O)N[C@H](C(=O)N[C@@H](CCC(N)=O)C(=O)N[C@@H](CO)C(=O)N[C@@H](CCC(N)=O)C(=O)N[C@@H](CCCNC(=N)N)C(=O)N[C@@H](CCC(=O)O)C(=O)N[C@@H](CCCNC(=N)N)C(=O)N[C@@H](C)C(=O)N[C@@H](CCC(=O)O)C(=O)N[C@@H](CCC(N)=O)C(=O)N[C@@H](CC(N)=O)C(=O)N[C@@H](CCCNC(=N)N)C(=O)N[C@H](C(=O)N[C@H](C(=O)N[C@@H](Cc1ccccc1)C(=O)N[C@@H](CC(=O)O)C(=O)N[C@@H](CO)C(=O)N[C@H](C(N)=O)C(C)C)[C@@H](C)CC)[C@@H](C)CC)[C@@H](C)O)[C@@H](C)O)[C@@H](C)O (H-DNPSLSIDLTFHLLRTLLELARTQSQRERAEQNRIIFDSV-NH2)

Ki [9]: 4 nM
Molecule: CCc1nc2c(c(C)nn2-c2ccc(C(C)C)cc2Br)n1Cc1ccccc1

IC50 [1]: 12.7 nM
Molecule: CCN(c1nc(C)cc(N2CC=C(c3cccc(F)c3)CC2)n1)c1ccc(C(C)C)cc1SC

Ki [9]: 8.8 nM
Molecule: CCCCC(CC)n1c(C)nc2c(-c3ccc(Cl)cc3Cl)ncnc21 (configuration not stated)

IC50 [10]: 3300 nM
IC50 [11]: 1000 nM
Molecule: Cc1c(SSc2c(C)n(C)n(-c3ccc4ccccc4c3)c2=O)c(=O)n(-c2ccc3ccccc3c2)n1C

EC50 [4]: 9.7 nM
Ki [5]: 7.16 nM
EC50 [6]: 61.9 nM
Ki [7]: 86.4 nM
Molecule: CC[C@H](C)[C@H](NC(=O)[C@H](CC(=O)O)NC(=O)[C@H](CC(C)C)NC(=O)[C@H](CC(C)C)NC(=O)[C@H](CCCCN)NC(=O)[C@H](CCCN=C(N)N)NC(=O)[C@H](CC(N)=O)NC(=O)[C@H](CO)NC(=O)[C@H](Cc1cnc[nH]1)NC(=O)[C@H](C)NC(=O)[C@H](CCC(N)=O)NC(=O)[C@H](CCC(N)=O)NC(=O)[C@H](C)NC(=O)[C@H](CC(C)C)NC(=O)[C@H](CCC(N)=O)NC(=O)[C@H](CC(=O)O)NC(=O)[C@H](C)NC(=O)[C@H](CCCCN)NC(=O)[C@@H](NC(=O)[C@H](CCSC)NC(=O)[C@H](CCC(=O)O)NC(=O)[C@H](CC(C)C)NC(=O)[C@@H](NC(=O)[C@H](CCC(=O)O)NC(=O)[C@H](CCCN=C(N)N)NC(=O)[C@H](CC(C)C)NC(=O)[C@H](CC(C)C)NC(=O)[C@H](Cc1cnc[nH]1)NC(=O)[C@H](Cc1ccccc1)NC(=O)[C@@H](NC(=O)[C@H](CC(C)C)NC(=O)[C@H](CC(=O)O)NC(=O)[C@H](CC(C)C)NC(=O)[C@H](CO)NC(=O)[C@@H](NC(=O)[C@@H]1CCCN1C(=O)[C@@H]1CCCN1C(=O)[C@H](CCC(=O)O)NC(=O)[C@H](CCC(N)=O)NC(=O)[C@@H](N)CO)[C@@H](C)CC)[C@@H](C)O)C(C)C)[C@@H](C)O)C(=O)N[C@@H](C)C(N)=O

Ki [12]: 1 nM
Molecule: CCCCN(CC)c1nc(C)nc2c1c(C)c(C)n2-c1c(C)cc(C)cc1C [ANTALARMIN]

IC50 [11]: 20000 nM
Molecule: Cc1cc(C)nc(N(C)c2ccccc2Br)n1

IC50 [10]: 13700 nM
IC50 [11]: 2900 nM
Molecule: CC(=O)Sc1c(C)n(C)n(-c2ccccc2)c1=O

Ki [14]: 1 nM
Molecule: CCC(CC)Nc1cc(C)nc2c(-c3ccc(OC)cc3C)c(C)nn12
IC50 [13]: 10000 nM
Reduction [15]: 57%
minimal effective dose [16]: 1 mg/kg
ED50 [17]: 1 mg/kg

IC50 [1]: 22.1 nM
Molecule: CCN(c1nc(C)cc(N2CC=C(c3cccc(F)c3)CC2)n1)c1ccc(C(C)C)cc1Br
